Data taken from patent US6737383B1, “Herbicidal oxadiazolidines” (priority 1999, dated 2004).

Legend:
rape = test: Test B pre/postemergence rape; assay type: in vivo, Brassica napus
Summary of the method: (§1)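 Response is a visual 0-to-10 score relative to untreated plants, where 0 means no effect and 10 means complete control, taken twelve to sixteen days after application. Treatments went onto soil at planting and onto foliage of 1- to 4-leaf plants, using a surfactant-containing non-phytotoxic solvent.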

surinam grass = test: Test B pre/postemergence surinam grass; assay type: in vivo, Brachiaria decumbens
Summary of the method: as §1

duck salad = test: Test B flood test duck salad; assay type: in vivo, Heteranthera limosa
Summary of the method: (§2)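 Read-out is a visual response score from 0 (no effect) to 10 (complete control), assigned by comparison with untreated controls. Treatment was applied at the 2-leaf stage, and plants stayed in the greenhouse for twelve to sixteen days before scoring.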

bamyardgrass = test: Test B flood test barnyardgrass; assay type: in vivo, Echinochloa crus-galli
Summary of the method: as §2

morningglory = test: Test B pre/postemergence morningglory; assay type: in vivo, Ipomoea hederacea
Summary of the method: as §1

purple nutsedge = test: Test B pre/postemergence purple nutsedge; assay type: in vivo, Cyperus rotundus
Summary of the method: as §1

cocklebur = test: Test B pre/postemergence cocklebur; assay type: in vivo, Xanthium strumarium
Summary of the method: as §1

pigweed = test: Test B pre/postemergence pigweed; assay type: in vivo, Amaranthus retroflexus
Summary of the method: as §1

smallflower flatsedge = test: Test B flood test smallflower flatsedge; assay type: in vivo, Cyperus difformis
Summary of the method: as §2

rice = test: Test B flood test rice; assay type: in vivo, Oryza sativa
Summary of the method: as §2

corn = test: Test B pre/postemergence corn; assay type: in vivo, Zea mays
Summary of the method: as §1

wheat = test: Test B pre/postemergence wheat; assay type: in vivo, Triticum aestivum
Summary of the method: as §1

crabgrass = test: Test B pre/postemergence crabgrass; assay type: in vivo, Digitaria sanguinalis
Summary of the method: as §1

sugar beet = test: Test B pre/postemergence sugar beet; assay type: in vivo, Beta vulgaris
Summary of the method: as §1

wild oat = test: Test B pre/postemergence wild oat; assay type: in vivo, Avena fatua
Summary of the method: as §1

giant foxtail = test: Test B pre/postemergence giant foxtail; assay type: in vivo, Setaria faberii
Summary of the method: as §1

[1] = Preemergence, Rate 62 g/ha, scale of 0 to 10 where 0 is no effect and 10 is complete control
[2] = Preemergence, Rate 250 g/ha, scale of 0 to 10 where 0 is no effect and 10 is complete control
[3] = Preemergence, Rate 500 g/ha, scale of 0 to 10 where 0 is no effect and 10 is complete control
[4] = Rate 62 g/ha, Postemergence, scale of 0 to 10 where 0 is no effect and 10 is complete control
[5] = Rate 125 g/ha, Postemergence, scale 0 to 10
[6] = Rate 125 g/ha, Preemergence, scale of 0 to 10 where 0 is no effect and 10 is complete control
[7] = Rate 500 g/ha, Postemergence, scale 0 to 10, 0 no effect, 10 complete control
[8] = Rate 62 g/ha, headed Pre-emergence (flood test species), scale 0 to 10 (0 no effect, 10 complete control)
[9] = Rate 125 g/ha, Pre-emergence, flood test species, scale 0 to 10 where 0 is no effect and 10 is complete control
[10] = Rate 250 g/ha, Pre-emergence, flood-test species, scale 0 to 10, 0 is no effect, 10 is complete control
[11] = Rate 500 g/ha, Pre-emergence, flood test species, scale 0 to 10 (0 no effect, 10 complete control)

CCCCc1ccc(N(C(=O)n2oc(=O)n(-c3ccccc3C)c2=O)C(C)C)cc1 [Compound 229]
0: Rape plant response rating (rape; [1]) | Rape plant response rating (rape; [2]) | Plant response rating, Rape (rape; [3]) | Rape plant response rating (rape; [4]) | Rape plant response rating (rape; [5]) | Rape plant response rating (rape; [6]) | Plant response rating (0 to 10; 0 is no effect, 10 is complete control), Rape (rape; Rate 250 g/ha, Postemergence) | Rape plant response rating (rape; [7]) | B. signalgrass plant response rating (surinam grass; [1]) | B. signalgrass plant response rating (surinam grass; Preemergence, Rate 250 g/ha, scale 0 to 10, 0 is no effect, 10 is complete control) | Plant response rating, B. signalgrass (surinam grass; [3]) | B. signalgrass plant response rating (surinam grass; [4]) | B. signalgrass plant response rating (surinam grass; Rate 125 g/ha, Postemergence, scale 0 (no effect) to 10 (complete control)) | B. signalgrass plant response rating (surinam grass; [6]) | Plant response rating (0 to 10; 0 is no effect, 10 is complete control), B. signalgrass (surinam grass; Rate 250 g/ha, Postemergence) | B. signalgrass plant response rating (surinam grass; [7]) | Ducksalad plant response rating (duck salad; [8]) | Ducksalad plant response rating (duck salad; [9]) | Ducksalad plant response rating (duck salad; [10]) | Ducksalad plant response rating (duck salad; [11]) | Barnyardgrass plant response rating (bamyardgrass; [8]) | Barnyardgrass plant response rating (bamyardgrass; [9]) | Barnyardgrass plant response rating (bamyardgrass; [10]) | Barnyardgrass plant response rating (bamyardgrass; [11]) | Morningglory plant response rating (morningglory; [1]) | Morningglory plant response rating (morningglory; [2]) | Plant response rating, Morningglory (morningglory; [3]) | Morningglory plant response rating (morningglory; [4]) | Morningglory plant response rating (morningglory; [5]) | Morningglory plant response rating (morningglory; [6]) | Plant response rating (0 to 10; 0 is no effect, 10 is complete control), Morningglory (morningglory; Rate 250 g/ha, Postemergence) | Morningglory plant response rating (morningglory; [7]) | Nutsedge plant response rating (purple nutsedge; [1]) | Nutsedge plant response rating (purple nutsedge; [2]) | Plant response rating, Nutsedge (purple nutsedge; [3]) | Nutsedge plant response rating (purple nutsedge; [4]) | Nutsedge plant response rating (purple nutsedge; [5]) | Nutsedge plant response rating (purple nutsedge; [6]) | Plant response rating (0 to 10; 0 is no effect, 10 is complete control), Nutsedge (purple nutsedge; Rate 250 g/ha, Postemergence) | Nutsedge plant response rating (purple nutsedge; [7]) | Cocklebur plant response rating (cocklebur; [1]) | Cocklebur plant response rating (cocklebur; [2]) | Plant response rating, Cocklebur (cocklebur; [3]) | Cocklebur plant response rating (cocklebur; [4]) | Cocklebur plant response rating (cocklebur; [5]) | Cocklebur plant response rating (cocklebur; [6]) | Plant response rating (0 to 10; 0 is no effect, 10 is complete control), Cocklebur (cocklebur; Rate 250 g/ha, Postemergence) | Cocklebur plant response rating (cocklebur; [7]) | Redroot pigweed plant response rating (pigweed; [1]) | Redroot pigweed plant response rating (pigweed; [2]) | Plant response rating, Redroot pigweed (pigweed; [3]) | Redroot pigweed plant response rating (pigweed; [4]) | Redroot pigweed plant response rating (pigweed; [5]) | Redroot pigweed plant response rating (pigweed; [6]) | Plant response rating (0 to 10; 0 is no effect, 10 is complete control), Redroot pigweed (pigweed; Rate 250 g/ha, Postemergence) | Redroot pigweed plant response rating (pigweed; [7]) | S. Flatsedge plant response rating (smallflower flatsedge; [8]) | S. Flatsedge plant response rating (smallflower flatsedge; [9]) | S. Flatsedge plant response rating (smallflower flatsedge; [10]) | S. Flatsedge plant response rating (smallflower flatsedge; [11]) | Rice plant response rating (rice; [8]) | Rice plant response rating (rice; [9]) | Rice plant response rating (rice; [10]) | Rice plant response rating (rice; [11]) | Corn plant response rating (corn; [1]) | Corn plant response rating (corn; [2]) | Plant response rating, Corn (corn; [3]) | Corn plant response rating (corn; [4]) | Corn plant response rating (corn; [5]) | Corn plant response rating (corn; [6]) | Plant response rating (0 to 10; 0 is no effect, 10 is complete control), Corn (corn; Rate 250 g/ha, Postemergence) | Corn plant response rating (corn; [7]) | Wheat plant response rating (wheat; [1]) | Wheat plant response rating (wheat; [2]) | Plant response rating, Wheat (wheat; [3]) | Wheat plant response rating (wheat; [4]) | Wheat plant response rating (wheat; [5]) | Wheat plant response rating (wheat; [6]) | Plant response rating (0 to 10; 0 is no effect, 10 is complete control), Wheat (wheat; Rate 250 g/ha, Postemergence) | Wheat plant response rating (wheat; [7]) | Crabgrass plant response rating (crabgrass; [1]) | Crabgrass plant response rating (crabgrass; [2]) | Plant response rating, Crabgrass (crabgrass; [3]) | Crabgrass plant response rating (crabgrass; [4]) | Crabgrass plant response rating (crabgrass; [5]) | Crabgrass plant response rating (crabgrass; [6]) | Plant response rating (0 to 10; 0 is no effect, 10 is complete control), Crabgrass (crabgrass; Rate 250 g/ha, Postemergence) | Crabgrass plant response rating (crabgrass; [7]) | Sugarbeets plant response rating (sugar beet; [1]) | Sugarbeets plant response rating (sugar beet; [2]) | Plant response rating, Sugarbeets (sugar beet; [3]) | Sugarbeets plant response rating (sugar beet; [4]) | Sugarbeets plant response rating (sugar beet; [5]) | Sugarbeets plant response rating (sugar beet; [6]) | Plant response rating (0 to 10; 0 is no effect, 10 is complete control), Sugarbeets (sugar beet; Rate 250 g/ha, Postemergence) | Sugarbeets plant response rating (sugar beet; [7]) | Wild oats plant response rating (wild oat; [1]) | Wild oats plant response rating (wild oat; [2]) | Plant response rating, Wild oats (wild oat; [3]) | Wild oats plant response rating (wild oat; [4]) | Wild oats plant response rating (wild oat; [5]) | Wild oats plant response rating (wild oat; [6]) | Plant response rating (0 to 10; 0 is no effect, 10 is complete control), Wild oats (wild oat; Rate 250 g/ha, Postemergence) | Wild oats plant response rating (wild oat; [7]) | Giant foxtail plant response rating (giant foxtail; [1]) | Giant foxtail plant response rating (giant foxtail; [2]) | Plant response rating, Giant foxtail (giant foxtail; [3]) | Giant foxtail plant response rating (giant foxtail; [4]) | Giant foxtail plant response rating (giant foxtail; [5]) | Giant foxtail plant response rating (giant foxtail; [6]) | Plant response rating (0 to 10; 0 is no effect, 10 is complete control), Giant foxtail (giant foxtail; Rate 250 g/ha, Postemergence) | Giant foxtail plant response rating (giant foxtail; [7])
